Literature values in EP4602929A1, “ORAL PRODUCT WITH POWDER COATING” (Nicoventures Trading Limited, priority 2024, dated 2025).

solubility in water | SMILES
water soluble | CC(/C=C/C=C(C)/C=C/C(=O)O)=C\C=C\C=C(C)\C=C\C=C(C)\C=C\C(=O)O (stereo in doubt) [norbixin, (2E,4E,6E,8E,10E,12E,14E,16E,18E)-4,8,13,17-tetramethylicosa-2,4,6,8,10,12,14,16,18-nonaenedioic acid]
insoluble in water | COC(=O)/C=C/C(C)=C\C=C\C(C)=C\C=C\C=C(C)\C=C\C=C(C)\C=C\C(=O)O [bixin, (2E,4E,6E,8E,10E,12E,14E,16Z,18E)-20-methoxy-4,8,13,17-tetramethyl-20-oxoicosa-2,4,6,8,10,12,14,16,18-nonaenoic acid]
